These results are taken from patent US10259810B2, “N-sulfonylated pyrazolo[3,4-b]pyridin-6-carboxamides and method of use” (AbbVie S.à.r.l., priority 2015, dated 2019).

Broadly, the EC50 is the midpoint of the concentration-response curve.

In assay [1] the target is T1, ΔF508-CFTR (Homo sapiens, UniProt P13569, DEL508-508).
T1 construct: host or cells: CFBE41o-, doxycycline-inducible
Nature of the assay: CFTR cell surface levels using HRP-tagged ΔF508-CFTR expressing CFBE cells, intrinsic corrector capacity. Also noted: % Activation: concentration or dose not given beside the values. It counts as cell-based. The note with it: HRP-tagged ΔF508-CFTR expressing CFBE41o- cells, compound alone (intrinsic corrector capacity), 20 hours at 33° C.; for EC50: read-out: EC50. In outline:
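Read-out: chemiluminescent HRP activity of ECL4-HRP-tagged ΔF508-CFTR at the cell surface, 15 min substrate in dark. Normalized as 100×(sample−DMSO)/(positive control−DMSO).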

Assay [2] has as its target T1, ΔF508-CFTR. As to the kind of experiment: CFTR cell surface levels using HRP-tagged ΔF508-CFTR expressing CFBE cells, in the presence of a co-corrector. It is filed as cell-based. The note with it: HRP-tagged ΔF508-CFTR CFBE cells, in the presence of 3 μM co-corrector; for EC50: read-out: EC50. In outline: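 Chemiluminescent read-out of surface HRP (15 min, dark) after PBS washes. Activity is normalized as 100×(sample−DMSO)/(3 μM co-corrector alone−DMSO).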

T1 sequence (P13569 with tags, fused parts or gaps DEL508-508): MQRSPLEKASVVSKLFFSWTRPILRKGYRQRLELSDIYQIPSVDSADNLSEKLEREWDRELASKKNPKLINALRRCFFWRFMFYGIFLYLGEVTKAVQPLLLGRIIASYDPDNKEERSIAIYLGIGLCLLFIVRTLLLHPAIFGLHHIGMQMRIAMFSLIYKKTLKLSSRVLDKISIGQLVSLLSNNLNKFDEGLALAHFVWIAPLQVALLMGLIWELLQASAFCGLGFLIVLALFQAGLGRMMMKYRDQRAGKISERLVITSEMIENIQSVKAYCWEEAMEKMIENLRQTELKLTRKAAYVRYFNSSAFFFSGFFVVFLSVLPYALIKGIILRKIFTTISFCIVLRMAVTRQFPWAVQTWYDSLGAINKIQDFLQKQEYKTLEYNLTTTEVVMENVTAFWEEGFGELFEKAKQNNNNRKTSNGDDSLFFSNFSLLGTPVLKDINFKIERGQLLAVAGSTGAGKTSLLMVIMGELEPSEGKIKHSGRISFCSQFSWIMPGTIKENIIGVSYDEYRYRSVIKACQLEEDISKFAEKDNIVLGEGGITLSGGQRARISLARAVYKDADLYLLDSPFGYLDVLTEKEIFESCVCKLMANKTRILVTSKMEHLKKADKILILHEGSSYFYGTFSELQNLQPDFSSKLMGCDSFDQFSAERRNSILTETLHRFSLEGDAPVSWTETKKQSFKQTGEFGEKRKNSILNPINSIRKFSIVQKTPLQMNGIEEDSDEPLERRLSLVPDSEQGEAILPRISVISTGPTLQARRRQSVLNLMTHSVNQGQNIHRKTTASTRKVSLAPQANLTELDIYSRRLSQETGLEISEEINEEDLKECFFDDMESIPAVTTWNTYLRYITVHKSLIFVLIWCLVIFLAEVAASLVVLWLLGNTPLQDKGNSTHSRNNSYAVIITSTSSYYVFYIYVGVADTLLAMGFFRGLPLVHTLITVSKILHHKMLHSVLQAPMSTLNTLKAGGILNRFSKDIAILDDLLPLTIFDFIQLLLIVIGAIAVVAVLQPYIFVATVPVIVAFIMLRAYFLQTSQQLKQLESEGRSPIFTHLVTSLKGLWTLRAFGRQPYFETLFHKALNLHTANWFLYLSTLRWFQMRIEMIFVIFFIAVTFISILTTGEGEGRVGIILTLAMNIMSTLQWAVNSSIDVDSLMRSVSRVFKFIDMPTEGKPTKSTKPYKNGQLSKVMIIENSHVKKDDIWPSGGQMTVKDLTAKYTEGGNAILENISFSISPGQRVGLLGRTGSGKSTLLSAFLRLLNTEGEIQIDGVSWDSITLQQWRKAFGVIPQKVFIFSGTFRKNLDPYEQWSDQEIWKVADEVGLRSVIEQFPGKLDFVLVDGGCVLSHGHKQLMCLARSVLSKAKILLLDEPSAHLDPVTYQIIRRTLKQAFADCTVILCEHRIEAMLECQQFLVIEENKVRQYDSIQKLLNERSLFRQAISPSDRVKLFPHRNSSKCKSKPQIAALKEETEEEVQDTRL

As for `COCCN(C)c1ccc(-c2cc(C(=O)NS(C)(=O)=O)nc3c2c(C(C)C)nn3-c2cccc(C(F)(F)F)c2)cc1` [Compound 132, N-(methanesulfonyl)-4-{4-[(2-methoxyethyl)(methyl)amino]phenyl}-3-(propan-2-yl)-1-[3-(trifluoromethyl)phenyl]-1H-pyrazolo[3,4-b]pyridine-6-carboxamide], on ΔF508-CFTR [1], the “% Activation” value was 244% and the EC50 came to 1270 nM. Further, at ΔF508-CFTR [2], the “% Activation” value came to 417.2% and the concentration giving a half-maximal response (EC50) was found to be 882 nM.
Regarding `CC(C)c1nn(-c2cccc(C(F)(F)F)c2)c2nc(C(=O)NS(C)(=O)=O)cc(-c3ccc(N(C)C4CCOCC4)nc3)c12` [Compound 133, N-(methanesulfonyl)-4-{6-[methyl(oxan-4-yl)amino]pyridin-3-yl}-3-(propan-2-yl)-1-[3-(trifluoromethyl)phenyl]-1H-pyrazolo[3,4-b]pyridine-6-carboxamide], on ΔF508-CFTR [1], the “% Activation” value is recorded as 222.33% and the EC50 came out at 413 nM. Moreover, on ΔF508-CFTR [2], the “% Activation” value is 417.7% and the EC50 is 336 nM.
The corresponding values for `CC(C)c1nn(-c2ccc(F)cc2)c2nc(C(=O)NS(C)(=O)=O)cc(-c3cnc(N(C)C4CCOCC4)nc3)c12` [Compound 134, 1-(4-fluorophenyl)-N-(methanesulfonyl)-4-{2-[methyl(oxan-4-yl)amino]pyrimidin-5-yl}-3-(propan-2-yl)-1H-pyrazolo[3,4-b]pyridine-6-carboxamide] are 229.87%, 465 nM, 435.8% and 237 nM.
Turning to `CC(C)c1nn(-c2cccc(C(F)(F)F)c2)c2nc(C(=O)NS(C)(=O)=O)cc(-c3ccc(N4CCC(C#N)CC4)cc3)c12` [Compound 135, 4-[4-(4-cyanopiperidin-1-yl)phenyl]-N-(methanesulfonyl)-3-(propan-2-yl)-1-[3-(trifluoromethyl)phenyl]-1H-pyrazolo[3,4-b]pyridine-6-carboxamide], on ΔF508-CFTR [1], the “% Activation” value worked out at 299.63% and the concentration giving a half-maximal response (EC50) worked out at 696 nM. Further, on ΔF508-CFTR [2], the “% Activation” value was 512.9% and the EC50 came out at 373 nM.
The corresponding values for `CC1(c2nn(-c3ccccc3)c3nc(C(=O)NS(C)(=O)=O)cc(-c4ccc(N5CCOCC5)cc4)c23)CCC1` [Compound 137, N-(methanesulfonyl)-3-(1-methylcyclobutyl)-4-[4-(morpholin-4-yl)phenyl]-1-phenyl-1H-pyrazolo[3,4-b]pyridine-6-carboxamide] are 131.8%, 1170 nM, 339.7% and 638 nM.
As to `CCS(=O)(=O)NC(=O)c1cc(-c2ccc(N3CCOCC3)cc2)c2c(C3(C)CCC3)nn(-c3ccccc3)c2n1` [Compound 138, N-(ethanesulfonyl)-3-(1-methylcyclobutyl)-4-[4-(morpholin-4-yl)phenyl]-1-phenyl-1H-pyrazolo[3,4-b]pyridine-6-carboxamide], the “% Activation” value is reported as 252.9% at ΔF508-CFTR [1] and 433.83% on ΔF508-CFTR [2]. Also, the EC50 at ΔF508-CFTR [1] is 334 nM; on ΔF508-CFTR [2] it was 236 nM.
Taken in the same sequence, the figures for `CC(C)c1nn(-c2ccc(F)cc2F)c2nc(C(=O)NS(C)(=O)=O)cc(-c3cnc(N4CCC(C#N)CC4)nc3)c12` [Compound 139, 4-[2-(4-cyanopiperidin-1-yl)pyrimidin-5-yl]-1-(2,4-difluorophenyl)-N-(methanesulfonyl)-3-(propan-2-yl)-1H-pyrazolo[3,4-b]pyridine-6-carboxamide] were 163.83%, 335.5%, 806 nM and 765 nM.
With `CC(C)c1nn(-c2ccc(F)cc2F)c2nc(C(=O)NS(C)(=O)=O)cc(-c3ccc(N4CCC(C#N)CC4)nc3)c12` [Compound 140, 4-[6-(4-cyanopiperidin-1-yl)pyridin-3-yl]-1-(2,4-difluorophenyl)-N-(methanesulfonyl)-3-(propan-2-yl)-1H-pyrazolo[3,4-b]pyridine-6-carboxamide], at ΔF508-CFTR [1], the “% Activation” value turned out to be 210.3% and the half-maximal effective concentration (EC50) was determined as 734 nM. For the same molecule, at ΔF508-CFTR [2], the “% Activation” value worked out at 377.9% and the concentration for a half-maximal effect (EC50) amounted to 381 nM.
On to `CC(C)c1nn(-c2ccc(F)cc2F)c2nc(C(=O)NS(C)(=O)=O)cc(-c3ccc(N4CCC(C#N)CC4)cc3)c12` [Compound 141, 4-[4-(4-cyanopiperidin-1-yl)phenyl]-1-(2,4-difluorophenyl)-N-(methanesulfonyl)-3-(propan-2-yl)-1H-pyrazolo[3,4-b]pyridine-6-carboxamide], for which, on ΔF508-CFTR [1], the “% Activation” value was determined as 233.07% and the EC50 was determined as 287 nM. In addition, at ΔF508-CFTR [2], the “% Activation” value was 414.63% and the EC50 amounted to 221 nM.
Regarding `COC1CCN(c2cc(C(=O)NS(=O)(=O)C3CCS(=O)(=O)C3)nc3c2c(C2CCC2)nn3-c2ccccc2)CC1` (stereo not shown) [Compound 143, 3-cyclobutyl-N-(1,1-dioxo-1λ^6-thiolane-3-sulfonyl)-4-(4-methoxypiperidin-1-yl)-1-phenyl-1H-pyrazolo[3,4-b]pyridine-6-carboxamide], on ΔF508-CFTR [1], the “% Activation” value turned out to be 107.15% and the concentration giving a half-maximal response (EC50) is 1110 nM. Also, at ΔF508-CFTR [2], the “% Activation” value stood at 217.8% and the EC50 was determined as 834 nM.
Taken in the same sequence, the figures for `CC(C)c1nn(C2CCCOC2)c2nc(C(=O)NS(C)(=O)=O)cc(-c3ccc(N4CCC(C#N)CC4)nc3)c12` (stereo not shown) [Compound 145, 4-[6-(4-cyanopiperidin-1-yl)pyridin-3-yl]-N-(methanesulfonyl)-1-(oxan-3-yl)-3-(propan-2-yl)-1H-pyrazolo[3,4-b]pyridine-6-carboxamide] were 112.03%, 1040 nM, 271.43% and 636 nM.
`COC1CCN(c2cc(C(=O)NS(=O)(=O)CCC(F)(F)F)nc3c2c(C2CCC2)nn3-c2ccccc2)CC1` [Compound 147, 3-cyclobutyl-4-(4-methoxypiperidin-1-yl)-1-phenyl-N-(3,3,3-trifluoropropane-1-sulfonyl)-1H-pyrazolo[3,4-b]pyridine-6-carboxamide]: on ΔF508-CFTR [1], the “% Activation” value came out at 176.47% and the half-maximal effective concentration (EC50) stood at 359 nM. For the same molecule, at ΔF508-CFTR [2], the “% Activation” value is listed as 363.93% and the EC50 was found to be 99.9 nM.
For `Cc1cccc(-n2nc(C(C)C)c3c(N4CCC5(C4)CC5(F)F)cc(C(=O)NS(C)(=O)=O)nc32)c1` (stereo not shown) [Compound 149, 4-(1,1-difluoro-5-azaspiro[2.4]heptan-5-yl)-N-(methanesulfonyl)-1-(3-methylphenyl)-3-(propan-2-yl)-1H-pyrazolo[3,4-b]pyridine-6-carboxamide], on ΔF508-CFTR [1], the “% Activation” value was found to be 122.3% and the EC50 amounted to 386 nM. Besides, at ΔF508-CFTR [2], the “% Activation” value came to 299.95% and the EC50 stood at 259 nM.
On to `CC(C)OC1CCN(c2cc(C(=O)NS(C)(=O)=O)nc3c2c(C2CCC2)nn3-c2ccccc2)CC1` [Compound 151, 3-cyclobutyl-N-(methanesulfonyl)-1-phenyl-4-{4-[(propan-2-yl)oxy]piperidin-1-yl}-1H-pyrazolo[3,4-b]pyridine-6-carboxamide], for which, at ΔF508-CFTR [1], the “% Activation” value was 228.95% and the EC50 was found to be 347 nM. In addition, on ΔF508-CFTR [2], the “% Activation” value was determined as 387.15% and the EC50 was found to be 109 nM.
The corresponding values for `COCC1CCCN(c2cc(C(=O)NS(C)(=O)=O)nc3c2c(C2CCC2)nn3-c2ccccc2)C1` (stereo not shown) [Compound 153, 3-cyclobutyl-N-(methanesulfonyl)-4-[3-(methoxymethyl)piperidin-1-yl]-1-phenyl-1H-pyrazolo[3,4-b]pyridine-6-carboxamide] are 146.7%, 355 nM, 290.05% and 130 nM.
The corresponding values for `CS(=O)(=O)NC(=O)c1cc(N2CCC(OCC(=O)N3CCCC3)CC2)c2c(C3CCC3)nn(-c3ccccc3)c2n1` [Compound 154, 3-cyclobutyl-N-(methanesulfonyl)-4-{4-[2-oxo-2-(pyrrolidin-1-yl)ethoxy]piperidin-1-yl}-1-phenyl-1H-pyrazolo[3,4-b]pyridine-6-carboxamide] are 275.65%, 533 nM, 447.85% and 203 nM.
The corresponding values for `COCC1CCN(c2cc(C(=O)NS(C)(=O)=O)nc3c2c(C(C)C)nn3-c2cccc(C)c2)CC1` [Compound 156, N-(methanesulfonyl)-4-[4-(methoxymethyl)piperidin-1-yl]-1-(3-methylphenyl)-3-(propan-2-yl)-1H-pyrazolo[3,4-b]pyridine-6-carboxamide] are 411%, 439 nM, 636.47% and 360 nM.
On to `CC(C)c1nn(-c2cccc(N(C)C)c2)c2nc(C(=O)NS(C)(=O)=O)cc(N3CCCCC3)c12` [Compound 157, 1-[3-(dimethylamino)phenyl]-N-(methanesulfonyl)-4-(piperidin-1-yl)-3-(propan-2-yl)-1H-pyrazolo[3,4-b]pyridine-6-carboxamide], for which, at ΔF508-CFTR [1], the “% Activation” value stood at 327.8% and the EC50 amounted to 460 nM. Further, on ΔF508-CFTR [2], the “% Activation” value is on record as 542.17% and the EC50 was found to be 359 nM.
The corresponding values for `CS(=O)(=O)NC(=O)c1cc(N2CCC3(CCO3)CC2)c2c(C3CCC3)nn(-c3ccccc3)c2n1` [Compound 159, 3-cyclobutyl-N-(methanesulfonyl)-4-(1-oxa-7-azaspiro[3.5]nonan-7-yl)-1-phenyl-1H-pyrazolo[3,4-b]pyridine-6-carboxamide] are 103.02%, 661 nM, 270.3% and 483 nM.
